For 7 compounds, pest or weed control and plant injury results are on record in patent publication US4208514A, “4(3H)-Oxobenzo-2,1,3-thiadiazine-2,2-dioxides” (The Dow Chemical Company, priority 1976, dated 1980).

Holding throughout (format): in vivo
Assay [1] deals with Velvet Leaf. Description: Selective post-emergent greenhouse test, Velvet Leaf. To be noted: post-emergence, 336 h, 2 weeks; for pest or weed control at 358.672 g/ha: 0.32 lbs/acre; for pest or weed control at 706.135 g/ha: 0.63 lbs/acre. The source says: (§1) So as to illustrate clearly the phytotoxic properties of the various active ingredients of the present invention, a group of controlled greenhouse experiments is described below.
(§2) Various species of plants, both broadleaf weeds and valuable crops, were planted in beds of good agricultural soil in a greenhouse. After the plants had emerged and grown to a height of about 2-6 inches, a portion of the plants were sprayed with an aqueous mixture, made by mixing a selected active ingredient and emulsifier or dispersant with water to provide solution containing 250 or 125 ppm active ingredient, employing sufficient amounts of the treating composition to provide low post emergent application rates of about 0.63 or 0.32 pounds per acre. Other portions of the plants were left untreated to serve as controls. In each test the active ingredient was a 3-methylethyl-1H-2,1,3-benzothiadiazin-4(3H)-one-2,2-dioxide having a substituent in the one position according to the invention.
(§3) After a period of 2 weeks the selective effect of the test ingredient on the plants was evaluated by a comparison with the control group of plants.

The subject of the next assay is Pig Weed. Description: General post-emergent herbicidal activity at 10 lbs/acre, Pig Weed. The note with it: post-emergence, 336 h.
From the text: (§4) Various species of plants, both broadleaf weeds and valuable crops, were planted in beds of good agricultural soil in a greenhouse. After the plants had emerged and grown to a height of about 2-6 inches, a portion of the plants were sprayed with an aqueous mixture, made by mixing a selected active ingredient and […], […] Other portions of the plants were left untreated to serve as controls. In each test the active ingredient was a 3-methylethyl-1H-2,1,3-benzothiadiazin-4(3H)-one-2,2-dioxide having a substituent in the one position according to the invention.
as §3

The subject of another assay is Jimson Weed. Description: Selective post-emergent greenhouse test, Jimson Weed. The note with it: post-emergence, 336 h, 2 weeks; for pest or weed control at 358.672 g/ha: 0.32 lbs/acre; for pest or weed control at 706.135 g/ha: 0.63 lbs/acre.
From the text: as §1, §2, §3

Another assay has as its system Annual Morning Glory. Description: General post-emergent herbicidal activity at 10 lbs/acre, Annual Morning Glory. To be noted: Ipomoea, post-emergence, 336 h.
From the text: as §4, §3

A further assay has as its system Cotton. Description: Selective post-emergent greenhouse test, Cotton (crop injury). To be noted: Gossypium hirsutum, post-emergence, 336 h, post-emergent, 2 weeks, crop, read-out: % Control Cotton; for plant injury at 358.672 g/ha: 0.32 lbs/acre; for plant injury at 706.135 g/ha: 0.63 lbs/acre.
From the text: as §1, §2, §3

The next assay has as its system Nutsedge. Description: General post-emergent herbicidal activity at 10 lbs/acre, Nutsedge. The note with it: Cyperus, post-emergence, 336 h.
From the text: as §4, §3

Assay [2] deals with Velvet Leaf. Description: General post-emergent herbicidal activity at 10 lbs/acre, Velvet Leaf. To be noted: post-emergence, 336 h.
From the text: as §4, §3

A further assay concerns Soybean. Description: Selective post-emergent greenhouse test, Soybean (crop injury). The note with it: Glycine max, post-emergence, 336 h, 2 weeks, read-out: % Control Soybean; for plant injury at 358.672 g/ha: 0.32 lbs/acre; for plant injury at 706.135 g/ha: 0.63 lbs/acre.
From the text: as §1, §2, §3

Consider `CCSC(=O)N1c2ccccc2C(=O)N(C(C)C)S1(=O)=O` [COSCH2 CH3, 1H-2,1,3-Benzothiadiazine-1-carbothioic acid: 3,4-Dihydro-3-(1-methylethyl)-4-oxo, S-ethyl ester; 2,2-dioxide], for which the pest or weed control at 358.672 g/ha in the assay on Velvet Leaf [1] and in the assay on Jimson Weed was 100% in each case. For the same compound, the pest or weed control at 706.135 g/ha in the assay on Velvet Leaf [1] and in the assay on Jimson Weed was 100% each time. In addition, the pest or weed control – broadly, how far the test organism was held down – at 11208.5 g/ha with Pig Weed amounted to 100%; with Annual Morning Glory, 100%; in the assay on Nutsedge, 95%; in the assay on Velvet Leaf [2], 100%. In addition, the plant injury at 358.672 g/ha with Cotton was determined as 100%; in the assay with Soybean, 0%. Also, the plant injury at 706.135 g/ha in the assay with Cotton is 100%; with Soybean, 0%.
For the compound `C=CCOC(=O)N1c2ccccc2C(=O)N(C(C)C)S1(=O)=O` [CO2 CH2 CHCH2, 1H-2,1,3-Benzothiadiazine-1-carboxylic Acid: 3,4-dihydro-3-(1-methylethyl)-4-oxo-, 2-Propenyl Ester, 2,2-Dioxide], the pest or weed control at 358.672 g/ha in the assay with Velvet Leaf [1] and in the assay on Jimson Weed was 100% each time. The pest or weed control at 706.135 g/ha with Velvet Leaf [1] and in the assay with Jimson Weed was 100% throughout. Also, the pest or weed control at 11208.5 g/ha turned out to be 100% with Pig Weed, 100% in the assay with Annual Morning Glory, 95% with Nutsedge and 100% with Velvet Leaf [2]. Further, the plant injury at 358.672 g/ha with Cotton stood at 50%; in the assay with Soybean, 0%. The plant injury at 706.135 g/ha with Cotton was found to be 50%; in the assay on Soybean it was 0%.
In the case of `COCC(=O)N1c2ccccc2C(=O)N(C(C)C)S1(=O)=O` [COCH2 OCH3, 1H-2,1,3-Benzothiadiazin-4(3H)-one: 1-methoxyacetyl-3-(1-methylethyl)-; 2,2-dioxide], the pest or weed control at 358.672 g/ha in the assay on Velvet Leaf [1] worked out at 80%; in the assay on Jimson Weed, 100%. Moreover, the pest or weed control at 706.135 g/ha in the assay on Velvet Leaf [1] and in the assay with Jimson Weed was 100% each time. Besides, the pest or weed control at 11208.5 g/ha with Pig Weed amounted to 100%; with Annual Morning Glory, 100%; in the assay with Nutsedge, 90%; with Velvet Leaf [2], 100%. Further, the plant injury at 358.672 g/ha in the assay on Cotton and with Soybean was 0% throughout. Moreover, the plant injury at 706.135 g/ha in the assay on Cotton and in the assay on Soybean was 0% in each case.
As to `CSC(=O)N1c2ccccc2C(=O)N(C(C)C)S1(=O)=O` [COSCH3, 1H-2,1,3-Benzothiadiazin-1-carbothioic acid: 3,4-Dihydro-3-(1-methylethyl)-4-oxo-, S-methyl ester; 2,2-Dioxide], the values for the pest or weed control at 358.672 g/ha in the assay on Velvet Leaf [1] and with Jimson Weed were 90% and 100%, respectively. Moreover, the pest or weed control at 706.135 g/ha in the assay with Velvet Leaf [1] and with Jimson Weed was 100% each time. In addition, the pest or weed control at 11208.5 g/ha in the assay on Pig Weed amounted to 100%; in the assay on Annual Morning Glory it was 100%; with Nutsedge, 85%; in the assay on Velvet Leaf [2] it was 100%. For the same compound, the plant injury at 358.672 g/ha amounted to 90% in the assay on Cotton and 0% in the assay on Soybean. The results for the plant injury at 706.135 g/ha in the assay with Cotton and in the assay on Soybean were 100% and 0%, respectively.
With `CC(C)N1C(=O)c2ccccc2N(C(=O)CCl)S1(=O)=O` [COCH2 Cl, 1-(2-Chloroacetyl)-3-(1-methylethyl)-1H-2,1,3-benzothiadiazin-4(3H)-one-2,2-Dioxide], the values for the pest or weed control at 358.672 g/ha with Velvet Leaf [1] and with Jimson Weed were 70% and 100%, respectively. The pest or weed control at 706.135 g/ha in the assay on Velvet Leaf [1] and with Jimson Weed was 100% each time. The pest or weed control at 11208.5 g/ha in the assay on Pig Weed, with Annual Morning Glory, with Nutsedge and in the assay on Velvet Leaf [2] was 100% throughout. Moreover, the figures for the plant injury at 358.672 g/ha in the assay on Cotton and in the assay on Soybean were 20% and 10%, respectively. In addition, the plant injury at 706.135 g/ha in the assay with Cotton was found to be 70%; in the assay on Soybean, 10%.
As to `CC(Cl)C(=O)N1c2ccccc2C(=O)N(C(C)C)S1(=O)=O` (centres unmarked) [COCHClCH3, 1H-2,1,3-Benzothiadiazin-4(3H)-one: 1-(2-chloro-1-oxopropyl)-3-(1-methylethyl)-; 2,2-dioxide], the pest or weed control at 358.672 g/ha in the assay on Velvet Leaf [1] and in the assay on Jimson Weed was 100% in each case. Moreover, the pest or weed control at 706.135 g/ha in the assay on Velvet Leaf [1] and with Jimson Weed was 100% each time. The pest or weed control at 11208.5 g/ha in the assay on Pig Weed is 100%; in the assay with Annual Morning Glory, 100%; in the assay on Nutsedge it was 95%; in the assay on Velvet Leaf [2], 100%. Moreover, the plant injury at 358.672 g/ha in the assay on Cotton and in the assay with Soybean was 0% throughout. Further, the plant injury at 706.135 g/ha in the assay on Cotton was 100%; with Soybean it was 0%.
`CC=CC(=O)N1c2ccccc2C(=O)N(C(C)C)S1(=O)=O` [COCHCHCH3, 1H-2,1,3-Benzothiadiazin-4(3H)-one: 3-(1-methylethyl)-1-(1-oxo-2-butenyl)-;2,2-dioxide]: in the assay on Velvet Leaf [1], the pest or weed control at 358.672 g/ha turned out to be 70%. Moreover, the pest or weed control at 706.135 g/ha with Velvet Leaf [1] and in the assay with Jimson Weed was 100% throughout. Also, the pest or weed control at 11208.5 g/ha amounted to 100% in the assay with Pig Weed, 100% in the assay with Annual Morning Glory, 90% with Nutsedge and 100% with Velvet Leaf [2]. Besides, the plant injury at 358.672 g/ha in the assay on Cotton and in the assay on Soybean was 0% throughout. Besides, the plant injury at 706.135 g/ha in the assay on Cotton and in the assay with Soybean was 0% each time.
